What was measured:
[1] = system: Human dermal fibroblasts; assay: Experiment 2: influence of C-phycocyanin concentration and UV intensity on cell activity (AlamarBlue); format: cell-based; conditions: UV 0-100 mJ/cm^2, FIG. 3
Method: (§1) A cell sample was prepared as follows: 1. Human dermal fibroblasts and human skin keratinocytes purchased from Kurabo Industries Ltd. were used. A cell suspension (1 mL) stored in liquid nitrogen was thawed in a water bath (37° C.) to an extent that small ice pellets remained, and then diluted with 9 mL of warm medium. 2. The diluted suspension was mixed gently and then transferred to a T75 flask and incubated overnight at 37° C. 3. The next day, the medium was replaced with 10 mL of fresh medium. 4. The medium was replaced periodically (once every 2 days for fibroblasts and once every 2 to 3 days for keratinocytes) and cell proliferation was continued. Meanwhile, the cells were observed using a microscope, and it was confirmed that the cells grew in the correct form. 5. After the cells reached about 80% confluence, the cells were passaged. The cells were passaged by washing the cells once with 10 mL of warm PBS, adding 5 mL of warm trypsin to a T75 flask, covering the bottom of the flask with a trypsin solution, followed by aspirating at room temperature for 1 minute. 6. The flask was allowed to stand in an oven at 37° C. for (maximum) 2 minutes for fibroblasts and (maximum) 7 minutes for keratinocytes. The cells were observed using a microscope and confirmed to be small and oval. 7. Thereafter, the side of the T75 flask was lightly tapped to release the cells. […]

[2] = system: Human dermal fibroblasts; assay: Experiment 3: restoration of cell activity decreased by prior UV irradiation (AlamarBlue); format: cell-based; conditions: pre-irradiation 400 mJ/cm^2 without substance, then UV 0-200 mJ/cm^2 through 0.4% or 2% solution; FIG. 5
Method: as §1

Substance: C-phycocyanin
- cell activity (relative fluorescence intensity) on UV irradiation ([1]; 0.4% C-phycocyanin solution): the decrease in cell activity was suppressed
- cell activity (relative fluorescence intensity) on UV irradiation versus no UV irradiation ([1]; 2% C-phycocyanin solution): the cell activity was even increased
- cell activity of cells whose activity was once decreased by UV irradiation [2]: cell activity was recovered

From patent publication US20250255791A1, “POWDER COSMETIC CONTAINING ULTRAVIOLET WAVELENGTH-CONVERTING SUBSTANCE, AND METHOD FOR PRODUCING SAME” (Shiseido Company, Ltd., priority 2019, published 2025)
